Assay results: PMC7932537, “Quantitative profiling of protease specificity” (PLoS Computational Biology, 2021)

What was measured:
MMP-2 [1] = target: T1, MMP-2 (Homo sapiens, UniProt P08253); test: K(obs) of individual phage substrates (set of 1369); format: biochemical; details: MMP2
T1 sequence (P08253 110-660): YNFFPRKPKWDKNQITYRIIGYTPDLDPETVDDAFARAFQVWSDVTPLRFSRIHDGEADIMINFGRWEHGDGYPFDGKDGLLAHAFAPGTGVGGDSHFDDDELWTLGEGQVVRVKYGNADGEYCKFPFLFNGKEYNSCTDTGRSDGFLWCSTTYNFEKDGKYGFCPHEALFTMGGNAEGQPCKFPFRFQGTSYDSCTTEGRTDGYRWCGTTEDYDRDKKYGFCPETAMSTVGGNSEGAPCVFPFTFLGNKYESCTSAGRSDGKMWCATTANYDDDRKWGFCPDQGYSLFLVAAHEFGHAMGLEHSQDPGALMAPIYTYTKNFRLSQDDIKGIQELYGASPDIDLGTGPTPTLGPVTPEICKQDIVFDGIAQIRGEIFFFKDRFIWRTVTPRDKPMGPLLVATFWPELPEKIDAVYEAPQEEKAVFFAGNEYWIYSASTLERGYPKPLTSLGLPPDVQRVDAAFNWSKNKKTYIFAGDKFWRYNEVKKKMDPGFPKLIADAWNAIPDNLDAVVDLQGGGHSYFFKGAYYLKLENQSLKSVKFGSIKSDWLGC

MMP-2 [2] = test: Substrate phage display with NGS: relative probability (RP) of P3-P1' tetramer clusters; format: biochemical, human; details: MMP2;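 note: ratio of tetramer probability after protease selection to that in naive phage library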
MMP-9 = MMP-9 (Homo sapiens, UniProt P14780); test: K(obs) of individual phage substrates (set of 1369); format: biochemical; details: MMP9
[3] = individual phage substrates, set of 1369 peptides, cleavage position marked by hyphen in sequence
[4] = RP of the P3-P1' tetramer contained in the substrate (substrate phage display with NGS)
[5] = individual phage substrates, set of 1369 peptides, hyphen in sequence marks cleavage position
[6] = individual phage substrate of the set of 1369 peptides, cleavage position marked by '-'
[7] = RP of the P3-P1' tetramer contained in the substrate
[8] = individual phage substrate of the set of 1369 peptides, dash in the sequence marks the cleavage position

Chain of MMP-9 (P14780 94-707): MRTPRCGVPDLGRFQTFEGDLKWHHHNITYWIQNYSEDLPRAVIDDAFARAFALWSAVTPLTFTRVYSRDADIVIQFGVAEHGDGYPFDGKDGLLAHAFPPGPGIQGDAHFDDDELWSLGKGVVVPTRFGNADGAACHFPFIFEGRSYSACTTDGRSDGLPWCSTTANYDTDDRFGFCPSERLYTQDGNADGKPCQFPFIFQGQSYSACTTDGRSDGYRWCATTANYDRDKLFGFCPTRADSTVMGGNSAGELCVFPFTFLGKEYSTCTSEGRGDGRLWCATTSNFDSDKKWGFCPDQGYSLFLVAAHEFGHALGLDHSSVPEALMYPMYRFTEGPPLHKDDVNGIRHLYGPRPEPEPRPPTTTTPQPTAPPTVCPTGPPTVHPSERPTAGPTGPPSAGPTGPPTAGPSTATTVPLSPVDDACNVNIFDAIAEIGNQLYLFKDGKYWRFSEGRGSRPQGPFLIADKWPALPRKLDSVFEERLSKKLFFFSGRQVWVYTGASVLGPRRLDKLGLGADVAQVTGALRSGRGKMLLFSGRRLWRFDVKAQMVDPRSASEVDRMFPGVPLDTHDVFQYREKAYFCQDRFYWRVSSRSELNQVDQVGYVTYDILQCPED

Substance | Kobs (MMP-2 [1]; [3]) | relative probability (RP) (MMP-2 [2]; [4]) | Kobs (MMP-9; [5]) | Kobs (MMP-2 [1]; [6]) | relative probability (RP) (MMP-2 [2]; [7]) | Kobs (MMP-9; [8])
SGARQ-LVLTA | 0 M⁻¹ s⁻¹ | 3.214 | 0 M⁻¹ s⁻¹ |  |  | 
SGARS-LKGTA | 9740.44 M⁻¹ s⁻¹ | 17.186 | 12792.1 M⁻¹ s⁻¹ |  |  | 
SGARS-MRLTA | 0 M⁻¹ s⁻¹ | 12.2991 | 762.325 M⁻¹ s⁻¹ |  |  | 
SGASH-MTLTA | 0 M⁻¹ s⁻¹ | 12.3873 | 0 M⁻¹ s⁻¹ |  |  | 
SGFAH-LTSTA | 4763.33 M⁻¹ s⁻¹ | 19.6504 | 171.876 M⁻¹ s⁻¹ |  |  | 
SGFLH-WRSTA | 0 M⁻¹ s⁻¹ | 0.05793 | 0 M⁻¹ s⁻¹ |  |  | 
SGFRN-LRITA | 0 M⁻¹ s⁻¹ | 9.821 | 201.585 M⁻¹ s⁻¹ |  |  | 
SGGSG-LRIGL |  |  |  | 12792.1 M⁻¹ s⁻¹ | 1.9698 | 201.585 M⁻¹ s⁻¹
SGGSG-LRILQ |  |  |  | 0 M⁻¹ s⁻¹ | 1.9698 | 0 M⁻¹ s⁻¹
SGGSG-LRVKR | 551.253 M⁻¹ s⁻¹ | 1.9698 | 231.616 M⁻¹ s⁻¹ |  |  | 
SGGSG-LRVLK |  |  |  | 654.784 M⁻¹ s⁻¹ | 1.9698 | 355.093 M⁻¹ s⁻¹
SGGSG-LWATP |  |  |  | 1870.4 M⁻¹ s⁻¹ | 1.9698 | 1071.29 M⁻¹ s⁻¹
SGHQN-LMATA | 7386.83 M⁻¹ s⁻¹ | 17.7487 | 1561.44 M⁻¹ s⁻¹ |  |  | 
SGHRS-LRSTA |  |  |  | 1981.53 M⁻¹ s⁻¹ | 7.851 | 3536.02 M⁻¹ s⁻¹
SGISF-MSVTA | 836.403 M⁻¹ s⁻¹ | 23.3965 | 0 M⁻¹ s⁻¹ |  |  | 
SGISY-MRITA | 836.403 M⁻¹ s⁻¹ | 22.3091 | 0 M⁻¹ s⁻¹ |  |  | 
SGLGT-LSKTA | 836.403 M⁻¹ s⁻¹ | 24.6198 | 0 M⁻¹ s⁻¹ |  |  | 
SGLRH-LSNTA | 386.839 M⁻¹ s⁻¹ | 22.7972 | 762.325 M⁻¹ s⁻¹ |  |  | 
SGLWY-LSATA | 1196.62 M⁻¹ s⁻¹ | 0.6796 | 484.315 M⁻¹ s⁻¹ |  |  | 
SGMAA-LKRTA |  |  |  | 3741.87 M⁻¹ s⁻¹ | 32.6562 | 0 M⁻¹ s⁻¹
SGMGH-LLHTA |  |  |  | 654.784 M⁻¹ s⁻¹ | 26.7019 | 0 M⁻¹ s⁻¹
SGPAA-LLGTA |  |  |  | 8941.32 M⁻¹ s⁻¹ | 35.8015 | 12792.1 M⁻¹ s⁻¹
SGPAR-LISTA | 12792.1 M⁻¹ s⁻¹ | 34.9166 | 12792.1 M⁻¹ s⁻¹ |  |  | 
SGPAW-MKGTA | 9740.44 M⁻¹ s⁻¹ | 34.3571 | 7386.83 M⁻¹ s⁻¹ |  |  | 
SGPAY-WRTTA | 12792.1 M⁻¹ s⁻¹ | 27.2209 | 1610.61 M⁻¹ s⁻¹ |  |  | 
SGPFF-LRKTA | 1239.69 M⁻¹ s⁻¹ | 12.8224 | 5090.5 M⁻¹ s⁻¹ |  |  | 
SGPFH-LSRTA | 84.609 M⁻¹ s⁻¹ | 23.4724 | 2280.5 M⁻¹ s⁻¹ |  |  | 

Substance | Kobs (MMP-2 [1]; [3]) | relative probability (RP) (MMP-2 [2]; [4]) | Kobs (MMP-9; [5]) | Kobs (MMP-2 [1]; [6]) | relative probability (RP) (MMP-2 [2]; [7]) | Kobs (MMP-9; [8])
SGPFR-LNWTA | 0 M⁻¹ s⁻¹ | 16.3818 | 1373.05 M⁻¹ s⁻¹ |  |  | 
SGPFY-LRNTA | 2038.8 M⁻¹ s⁻¹ | 17.7778 | 7815.03 M⁻¹ s⁻¹ |  |  | 
SGPHG-FFQTA |  |  |  | 171.876 M⁻¹ s⁻¹ | 21.975 | 551.253 M⁻¹ s⁻¹
SGPHH-LTLTA |  |  |  | 1327.88 M⁻¹ s⁻¹ | 27.4742 | 1925.41 M⁻¹ s⁻¹
SGPKS-LVRTA |  |  |  | 12792.1 M⁻¹ s⁻¹ | 32.0343 | 12792.1 M⁻¹ s⁻¹
SGPKW-IIQTA |  |  |  | 2687.73 M⁻¹ s⁻¹ | 22.5059 | 12792.1 M⁻¹ s⁻¹
SGPLG-IKSTA | 12792.1 M⁻¹ s⁻¹ | 33.936 | 12792.1 M⁻¹ s⁻¹ |  |  | 
SGPLG-IRYTA |  |  |  | 9740.44 M⁻¹ s⁻¹ | 33.936 | 7815.03 M⁻¹ s⁻¹
SGPLG-ITLTA | 12792.1 M⁻¹ s⁻¹ | 33.936 | 12792.1 M⁻¹ s⁻¹ |  |  | 
SGPLG-LSGTA |  |  |  | 12792.1 M⁻¹ s⁻¹ | 35.3536 | 12792.1 M⁻¹ s⁻¹
SGPLG-YTVTA |  |  |  | 12792.1 M⁻¹ s⁻¹ | 33.1744 | 12792.1 M⁻¹ s⁻¹
SGPMA-LSRTA |  |  |  | 8321.48 M⁻¹ s⁻¹ | 34.1737 | 12792.1 M⁻¹ s⁻¹
SGPMF-LWTTA |  |  |  | 1283.43 M⁻¹ s⁻¹ | 18.5721 | 10866.7 M⁻¹ s⁻¹
SGPMR-LVTTA | 1870.4 M⁻¹ s⁻¹ | 20.4124 | 4205.91 M⁻¹ s⁻¹ |  |  | 
SGPNY-IRATA | 7386.83 M⁻¹ s⁻¹ | 6.689 | 12792.1 M⁻¹ s⁻¹ |  |  | 
SGPQS-WRTTA | 7815.03 M⁻¹ s⁻¹ | 25.7009 | 3165.09 M⁻¹ s⁻¹ |  |  | 
SGPQW-ITGTA |  |  |  | 7815.03 M⁻¹ s⁻¹ | 28.1021 | 12792.1 M⁻¹ s⁻¹
SGPRA-LKGTA |  |  |  | 12792.1 M⁻¹ s⁻¹ | 35.2345 | 12792.1 M⁻¹ s⁻¹
SGPRF-IRLTA |  |  |  | 1154.21 M⁻¹ s⁻¹ | 22.3274 | 2097.28 M⁻¹ s⁻¹
SGPRG-QVFTA |  |  |  | 12792.1 M⁻¹ s⁻¹ | 29.4864 | 8941.32 M⁻¹ s⁻¹
SGPRM-LVLTA |  |  |  | 4082.43 M⁻¹ s⁻¹ | 30.5973 | 6688.74 M⁻¹ s⁻¹
SGPRP-LLATA |  |  |  | 12792.1 M⁻¹ s⁻¹ | 34.3303 | 12792.1 M⁻¹ s⁻¹
SGPRP-LYHTA | 12792.1 M⁻¹ s⁻¹ | 34.3303 | 12792.1 M⁻¹ s⁻¹ |  |  | 
SGPRS-LYTTA |  |  |  | 12792.1 M⁻¹ s⁻¹ | 33.3704 | 12792.1 M⁻¹ s⁻¹
SGPRS-MLNTA |  |  |  | 6688.74 M⁻¹ s⁻¹ | 32.6673 | 5461.43 M⁻¹ s⁻¹
SGPRW-MKGTA | 4205.91 M⁻¹ s⁻¹ | 32.3694 | 7815.03 M⁻¹ s⁻¹ |  |  | 
